Results reported in patent US20090305993A1, “METHODS AND COMPOSITION FOR THE TREATMENT OF GASTROINTESTINAL DISORDERS” (IRONWOOD PHARMACEUTICALS, INC., priority 2006, published 2009).
Where a SMILES comes first, the peptide text is derived from it. Bridges are numbered along the chain shown (N, C = ends).

Assays:
intestinal GC-C receptor = molecular target: T1, intestinal GC-C receptor (Homo sapiens, UniProt P25092); experiment: intestinal GC-C receptor activity assay (cyclic GMP EIA) in T84 cells; type: cell-based; conditions: chemically synthesized peptides, FIGS. 2a and 2b
T1 construct: monolayers of T84 cells in 24-well plates; host or cells: T84 human colon carcinoma cells
T1 sequence (P25092 24-1073): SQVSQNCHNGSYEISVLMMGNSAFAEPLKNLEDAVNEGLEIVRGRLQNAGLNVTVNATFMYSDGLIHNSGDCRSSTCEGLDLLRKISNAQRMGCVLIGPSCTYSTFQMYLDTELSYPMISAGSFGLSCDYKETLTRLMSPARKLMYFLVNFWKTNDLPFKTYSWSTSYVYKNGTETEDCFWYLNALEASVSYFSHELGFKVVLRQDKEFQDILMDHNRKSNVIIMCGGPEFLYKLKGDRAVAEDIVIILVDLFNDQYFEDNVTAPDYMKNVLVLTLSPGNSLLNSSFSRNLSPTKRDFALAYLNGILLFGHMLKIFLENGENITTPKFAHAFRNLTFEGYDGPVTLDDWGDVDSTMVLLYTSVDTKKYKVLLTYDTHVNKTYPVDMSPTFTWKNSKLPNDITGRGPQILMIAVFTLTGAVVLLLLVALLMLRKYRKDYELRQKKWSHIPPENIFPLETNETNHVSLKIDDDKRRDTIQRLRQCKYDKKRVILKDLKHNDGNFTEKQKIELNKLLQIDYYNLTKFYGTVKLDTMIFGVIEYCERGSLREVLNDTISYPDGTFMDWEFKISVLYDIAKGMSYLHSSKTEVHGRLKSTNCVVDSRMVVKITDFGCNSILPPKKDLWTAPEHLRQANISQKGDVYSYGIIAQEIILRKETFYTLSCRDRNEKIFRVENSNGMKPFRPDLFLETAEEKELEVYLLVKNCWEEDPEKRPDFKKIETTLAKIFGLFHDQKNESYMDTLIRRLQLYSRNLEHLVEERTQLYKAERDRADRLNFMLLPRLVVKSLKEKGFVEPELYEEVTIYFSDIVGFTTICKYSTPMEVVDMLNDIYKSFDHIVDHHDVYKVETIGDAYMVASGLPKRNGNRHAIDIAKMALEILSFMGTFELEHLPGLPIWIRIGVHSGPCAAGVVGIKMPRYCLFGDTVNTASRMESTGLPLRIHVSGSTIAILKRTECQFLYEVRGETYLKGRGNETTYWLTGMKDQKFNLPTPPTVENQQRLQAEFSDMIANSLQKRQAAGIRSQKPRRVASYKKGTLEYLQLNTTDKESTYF
Experimental: The ability of SEQ ID NO:5, SEQ ID NO:4, SEQ ID NO:3, and SEQ ID NO:6 to activate the intestinal GC-C receptor was assessed in an assay employing the T84 human colon carcinoma cell line (American Type Culture Collection (Bethesda, Md.)). For the assays cells were grown to confluency in 24-well culture plates with a 1:1 mixture of Ham's F12 medium and Dulbecco's modified Eagle's medium (DMEM), supplemented with 5% fetal calf serum and were used at between passages 54 and 60.
Briefly, monolayers of T84 cells in 24-well plates were washed twice with 1 ml/well DMEM, then incubated at 37° C. for 10 min with 0.45 ml DMEM containing 1 mM isobutylmethylxanthine (IBMX), a cyclic nucleotide phosphodiesterase inhibitor. Test peptides (50 μl) were then added and incubated for 30 minutes at 37° C. The media was aspirated and the reaction was then terminated by the addition of ice cold 0.5 ml of 0.1N HCl. The samples were held on ice for 20 minutes and then evaporated to dryness using a heat gun or vacuum centrifugation.

carboxypeptidase A = molecular target: T2, carboxypeptidase A (Homo sapiens, UniProt P15085); experiment: in vitro proteolytic stability, carboxypeptidase A
T2 sequence (P15085 111-419): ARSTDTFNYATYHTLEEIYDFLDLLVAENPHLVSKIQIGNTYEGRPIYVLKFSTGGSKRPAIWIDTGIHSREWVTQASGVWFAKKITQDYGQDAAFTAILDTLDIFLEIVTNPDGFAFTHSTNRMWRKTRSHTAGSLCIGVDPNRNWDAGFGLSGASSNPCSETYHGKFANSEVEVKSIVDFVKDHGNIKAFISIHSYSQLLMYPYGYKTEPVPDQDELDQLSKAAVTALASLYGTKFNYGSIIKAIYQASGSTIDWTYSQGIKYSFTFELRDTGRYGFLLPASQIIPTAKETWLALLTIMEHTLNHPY
Experimental: The stability of SEQ ID NO:3 in the presence of several mammalian digestive enzymes was determined. SEQ ID NO:3 was exposed to a variety of in vitro conditions including digestive enzymes and low ph environments designed to simulate gastric fluid. SEQ ID NO:3 was incubated with chymotrypsin, trypsin, pepsin, aminopeptidase, carboxypeptidase A, and simulated gastric fluid (sgf) at ph 1.0. Samples were collected at 0, 3, and 24 h for all conditions except pepsin digestion and the SGF. For the latter two conditions, samples were obtained at 0, 1, and 3 h. Negative control samples were prepared for initial and final time points. A separate, positive activity control was run in parallel to SEQ ID NO:3. All samples were analyzed by LC/MS
Five (5) μL of a 40 μg/mL carboxypeptidase inhibitor (carboxypeptidase inhibitor from potato tuber (Sigma-Aldrich, C0279) stock was added to each control sample (0 and 24 h), for a final concentration of 0.4 μg/mL. All control and test (0, 3 and 24 h) samples were incubated at 37° C. for 5 min. Twenty (20) μL of a 0.01 mg/mL carboxypeptidase A (Carboxypeptidase A from human pancreas; Sigma-Aldrich, C5358) stock was added to each sample. The samples were returned to the 37° C. water bath. The reaction was quenched with 5 μL of a 40 μg/mL carboxypeptidase inhibitor at the proper time point. No extra carboxypeptidase inhibitor was added to the control samples since there was already inhibitor present. Samples were subsequently flash frozen in liquid nitrogen, and stored at −80° C. until analysis. Upon analysis, samples were thawed and transferred to a 1 mL 96-well deep microtiter plate. […] These standards were used to generate a standard curve for quantification of samples. When necessary, the standard curves were also used to calculate the concentration of the corresponding digestion product. Ten (10) μL injections were made of each sample and standard.
To further study the SEQ ID NO:3 carboxypeptidase A digestion product, samples of 0.01 mg/mL SEQ ID NO:3 were prepared in the carboxypeptidase A reaction buffer at a total volume of 500 μL in 2 mL eppendorf tubes. Triplicate samples were prepared for the following time points: 0, 15, 30, 60, 120, 180 and 240 min. The samples were incubated at 37° C. for 5 min. Twenty (20) μL of a 0.01 mg/mL carboxypeptidase A stock were added to each sample and returned to the 37° C. water bath. The reactions were quenched with 5 μL of a 40 μg/mL carboxypeptidase inhibitor at the proper time points. Samples were subsequently flash frozen in liquid nitrogen, and stored at −80° C. until analysis. Upon analysis, samples were thawed and transferred to a 1 mL 96-well plate. Standards of SEQ ID NO:3 were prepared in carboxypeptidase A reaction buffer at 0.625, 1.25, 2.50, 5.00, and 10.00 μg/mL concentrations. These standards were used to generate a standard curve for quantification of samples. When necessary, the standard curves were also used to calculate the concentration of the corresponding digestion product. Ten (10) μL injections were made of each sample and standard. If the formation of a digestion product was evident, then a spectral analysis was used to determine the mass of the digestion product, and predict its possible identity.

aminopeptidase = aminopeptidase (Sus scrofa, UniProt P15145); conditions: 37° C., up to 24 h
Sequence of aminopeptidase (P15145 whole entry): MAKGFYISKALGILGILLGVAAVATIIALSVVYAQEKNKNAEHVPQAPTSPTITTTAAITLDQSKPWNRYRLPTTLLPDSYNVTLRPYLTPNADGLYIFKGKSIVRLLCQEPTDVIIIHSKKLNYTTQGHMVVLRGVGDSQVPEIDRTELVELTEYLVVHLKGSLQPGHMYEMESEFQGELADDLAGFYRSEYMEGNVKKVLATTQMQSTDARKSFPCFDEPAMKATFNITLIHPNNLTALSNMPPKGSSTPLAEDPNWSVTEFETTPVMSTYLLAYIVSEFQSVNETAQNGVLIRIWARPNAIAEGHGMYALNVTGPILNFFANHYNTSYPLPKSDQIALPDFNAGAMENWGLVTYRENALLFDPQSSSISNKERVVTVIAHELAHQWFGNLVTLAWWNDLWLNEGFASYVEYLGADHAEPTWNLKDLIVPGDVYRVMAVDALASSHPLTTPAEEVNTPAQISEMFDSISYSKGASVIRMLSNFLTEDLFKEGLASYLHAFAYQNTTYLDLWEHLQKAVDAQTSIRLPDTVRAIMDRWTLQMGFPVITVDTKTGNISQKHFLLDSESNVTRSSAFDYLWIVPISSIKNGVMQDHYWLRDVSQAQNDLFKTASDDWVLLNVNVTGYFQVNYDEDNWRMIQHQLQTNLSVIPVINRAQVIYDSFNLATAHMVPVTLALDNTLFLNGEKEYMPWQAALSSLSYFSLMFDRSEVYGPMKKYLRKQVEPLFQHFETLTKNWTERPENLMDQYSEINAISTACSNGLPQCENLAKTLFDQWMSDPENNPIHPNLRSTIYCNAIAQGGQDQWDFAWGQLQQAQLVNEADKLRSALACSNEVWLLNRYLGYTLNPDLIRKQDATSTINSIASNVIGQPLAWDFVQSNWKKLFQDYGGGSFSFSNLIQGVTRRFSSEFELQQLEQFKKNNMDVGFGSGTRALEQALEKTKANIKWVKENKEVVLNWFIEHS
Experimental: 500 μL samples of 0.01 mg/mL SEQ ID NO:3 and chemically synthesized SEQ ID NO:4 (wild type ST; positive control) were prepared in the aminopeptidase reaction buffer (5 mM Tris-HCl, 5 mM MgCl2, pH 7.5) in 2 mL eppendorf tubes. 5 μL of a 5 mg/mL Bestatin hydrochloride (BioChemika, 08170; an aminopeptidase inhibitor) stock was added to each control sample (0 and 24 h), for a final concentration of 0.05 mg/mL. All control and test samples (0, 3, and 24 h) were incubated at 37° C. for 5 min. […] These standards were used to generate a standard curve for quantification of samples. […]

SMILES: C[C@@H]1NC(=O)[C@@H]2CCCN2C(=O)[C@H](CC(N)=O)NC(=O)[C@@H]2CSSC[C@H](N)C(=O)N[C@H]3CSSC[C@H](NC1=O)C(=O)N[C@@H]([C@@H](C)O)C(=O)NCC(=O)N[C@H](C(=O)N[C@@H](Cc1ccc(O)cc1)C(=O)O)CSSC[C@H](NC(=O)[C@H](Cc1ccc(O)cc1)NC(=O)[C@H](CCC(=O)O)NC3=O)C(=O)N2 [SEQ ID NO:3] (H-CCEYCCNPACTGCY-OH; disulfide 1-6, 2-10, 5-13; N-terminus and C-terminus assumed)
- activity in GC-C receptor activity assay (intestinal GC-C receptor): activity comparable to SEQ ID NO:4
- proteolysis by carboxypeptidase A (carboxypeptidase A; 37° C., FIG. 13a, 13b): some proteolysis
- Cleavage of SEQ ID NO: 3 by proteolytic substance (carboxypeptidase A; Carboxypetidase A, 37° C., up to 24 h): Yes
- average calculated product concentrations (carboxypeptidase A; T3 h samples): 1.3 (+/−0.06) μg/mL
- average calculated product concentrations (carboxypeptidase A; T24 h samples): 1.3 (+/−0.04) μg/mL
- calculated concentrations of parent (carboxypeptidase A; all samples): 8.4 (+/−1.2) μg/mL
- average concentration (carboxypeptidase A; carboxypeptidase A digestion of SEQ ID NO:3, T0): 5115 (+/−121) nM
- average concentration (carboxypeptidase A; carboxypeptidase A digestion of SEQ ID NO:3, T240 (240 min)): 4438 (+/−188) nM
- calculated concentrations for the products (carboxypeptidase A; time 0 control (with inhibitor)): 0.8 (+/−0.02) μg/mL
- calculated concentrations for the products (carboxypeptidase A; time 0 samples): 0.8 (+/−0.01) μg/mL
- Cleavage of SEQ ID NO: 3 by proteolytic substance (aminopeptidase): not detectable
